# Patent US20190284149A1, “ARYL HYDROCARBON RECEPTOR MODULATOR” (ARIAGEN, INC., priority 2014, published 2019)
# Biological target: T1, AhR receptor (Homo sapiens, UniProt P35869)
# T1 construct: expression of native (Human Hepatoma Huh-7) AhR receptor reporter gene cells; endogenous in cells; host or cells: Human hepatoma Huh-7 reporter cells (firefly luciferase under receptor-specific response elements)
# T1 sequence (P35869 11-848): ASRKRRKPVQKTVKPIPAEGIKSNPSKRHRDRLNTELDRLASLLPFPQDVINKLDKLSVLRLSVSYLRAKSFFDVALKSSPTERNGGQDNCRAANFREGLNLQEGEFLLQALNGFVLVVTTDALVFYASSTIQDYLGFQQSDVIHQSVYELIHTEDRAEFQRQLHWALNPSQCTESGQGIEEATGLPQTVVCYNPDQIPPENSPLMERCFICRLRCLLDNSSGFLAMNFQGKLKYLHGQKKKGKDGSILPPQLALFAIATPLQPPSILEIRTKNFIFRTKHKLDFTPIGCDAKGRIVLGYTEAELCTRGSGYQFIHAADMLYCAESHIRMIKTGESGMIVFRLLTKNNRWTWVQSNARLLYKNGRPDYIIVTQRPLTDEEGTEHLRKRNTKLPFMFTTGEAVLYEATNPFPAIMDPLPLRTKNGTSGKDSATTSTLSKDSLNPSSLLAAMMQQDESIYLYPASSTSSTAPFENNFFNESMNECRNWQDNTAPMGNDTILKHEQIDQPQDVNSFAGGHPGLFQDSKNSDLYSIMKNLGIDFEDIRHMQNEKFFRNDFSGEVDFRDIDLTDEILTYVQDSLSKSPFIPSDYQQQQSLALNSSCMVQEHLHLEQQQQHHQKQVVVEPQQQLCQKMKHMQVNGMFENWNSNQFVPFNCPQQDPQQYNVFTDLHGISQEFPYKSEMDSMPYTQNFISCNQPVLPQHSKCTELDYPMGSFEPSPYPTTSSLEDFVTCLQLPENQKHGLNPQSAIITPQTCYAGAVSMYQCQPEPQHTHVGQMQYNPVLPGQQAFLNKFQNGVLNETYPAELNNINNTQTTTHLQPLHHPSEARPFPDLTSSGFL
# Assay: AhR agonism assay (luciferase reporter gene cells)
# Format: cell-based
# Conditions: not given
# Procedure: Assay Materials (plasmids): expression of native (Human Hepatoma Huh-7) AhR receptor reporter gene cells, the reporter vector includes functional firefly luciferase gene linked to upstream receptor-specific genetic response elements (GRE).
# The AhR agonism assay comprises the following three steps:
# 1. Cell implantation: a suspension of AhR receptor cells was prepared in cell recovery medium (CRM; FBS containing 10% activated carbon). Then, the prepared suspension (100 μl) was dispensed into wells of a white 96-well culture plate.
# 2. Right before the beginning of the experiment, Master Stocks were diluted to “2× concentration” treatment media with appropriate compound screening media (CSM: FBS containing 10% activated carbon). The test compounds were subjected to gradient dilution with CSM medium containing 0.2% DMSO, so that the final concentration of DMSO in each experimental well for each treatment group was 0.1%. […] The experimental plate was placed in an incubator at 37° C. for 24 h.
# 3. Fluorescence detection and analysis: after completion of the incubation, the treatment media were discarded and 100 μL/well of luciferase detection reagent was added. The Ave RLU (average relative fluorescence intensity) of each well and the coefficient of variation for each experimental group were determined. The activity of AhR receptor with various concentrations of the test compounds was quantitatively determined using a ratio of Ave RLU^Test Cmpd of various concentrations of the test compounds in the experimental group to Ave RLU^Vehicle of the blank control group, and fold activation and EC50 were determined.
# For data processing method, refer to J. Biomol.
row,SMILES,EC50
1,CC(C)c1nc(C(=O)c2c[nH]c3ccccc23)cs1 [Compound 9],0.001 to 1 µM
2,COC(=O)c1ccc(C(=O)c2c[nH]c3ccccc23)nc1 [Compound 18],1 to 10 µM
3,COC(=O)c1nsc(C(=O)c2c[nH]c3ccccc23)n1 [Compound 8],1 to 10 µM
4,COC(=O)c1csc(C(=O)c2cn(CO)c3ccccc23)n1 [Compound 37],0.001 to 1 µM
5,COC(=O)c1csc(C(=O)c2c[nH]c3ccccc23)c1 [Compound 15],10 to 100 µM

# Same assay, conditions: Human Hepatoma Huh-7 AhR reporter gene cells, 24 h incubation at 37° C., 0.1% DMSO; read-out: EC50
row,SMILES,EC50
1,CC(C)[C@H](NC(=O)OC(C)(C)C)C(=O)n1cc(C(=O)c2nc(-c3nccs3)cs2)c2ccccc21 [Compound 42-1],0.001 to 1 µM
2,O=C(c1nc(C2CC2)cs1)c1c[nH]c2ccccc12 [Compound 41],0.001 to 1 µM
3,O=C(c1nc(-c2ncco2)cs1)c1c[nH]c2ccccc12 [Compound 33-2],0.001 to 1 µM
4,COCCOCCOCCOCC(=O)OCC(=O)OCn1cc(C(=O)c2nc(C(=O)OC)cs2)c2ccccc21 [Compound 7],0.001 to 1 µM
5,COC(=O)c1csc(C(=O)c2cn(C3OC(CO)C(O)C(O)C3O)c3ccccc23)n1 (centres unmarked) [Compound 38-4],0.001 to 1 µM
6,O=C(c1nc(-c2ccccn2)cs1)c1c[nH]c2ccccc12 [Compound 22],0.001 to 1 µM
7,COC(=O)c1csc(C(=O)c2cn(C3OC(COC(C)=O)C(O)C(O)C3O)c3ccccc23)n1 (centres unmarked) [Compound 38-3],0.001 to 1 µM
8,O=C(c1nc(C2=NCCS2)cs1)c1c[nH]c2ccccc12 [Compound 31-1],0.001 to 1 µM
9,COC(=O)c1c[nH]c(C(=O)c2c[nH]c3ccccc23)n1 [Compound 23],0.001 to 1 µM
10,COC(=O)CNC(=O)c1csc(C(=O)c2c[nH]c3ccccc23)n1 [Compound 27],0.001 to 1 µM
11,COC(=O)c1csc(-c2csc(C(=O)c3c[nH]c4ccccc34)n2)n1 [Compound 32-2],0.001 to 1 µM
12,O=C(c1nc(-c2nnc[nH]2)cs1)c1c[nH]c2ccccc12 [Compound 36],0.001 to 1 µM
13,COC(=O)c1csc(C(=O)c2cn(C3OC(COC(C)=O)C(OC(C)=O)C(OC(C)=O)C3OC(C)=O)c3ccccc23)n1 (centres unmarked) [Compound 38-1],0.001 to 1 µM
14,CO/N=C(\c1nc(C(=O)OC)cs1)c1c[nH]c2ccccc12 [Compound 25-2],1 to 10 µM
15,CO/N=C(/c1nc(C(=O)OC)cs1)c1c[nH]c2ccccc12 [Compound 25-1],1 to 10 µM
16,CC(C)[C@H](N)C(=O)n1cc(C(=O)c2nc(-c3nccs3)cs2)c2ccccc21 [Compound 42-2],0.001 to 1 µM
17,COC(=O)c1nnc(C(=O)c2c[nH]c3ccccc23)o1 [Compound 34],1 to 10 µM
18,COC(=O)c1csc(/C(=N/O)c2c[nH]c3ccccc23)n1 [Compound 26-1],1 to 10 µM
19,COC(=O)C1CSC(C(=O)c2c[nH]c3ccc(OC)cc23)=N1 (centres unmarked) [Compound 19-1],0.001 to 1 µM
20,COC(=O)c1csc(C(=O)c2cn(C3OC(COC(C)=O)C(OC(C)=O)C(OC(C)=O)C3OC(C)=O)c3ccccc23)n1 (centres unmarked) [Compound 38-2],0.001 to 1 µM
21,O=C(c1nc(-c2c[nH]cn2)cs1)c1c[nH]c2ccccc12 [Compound 43-2],0.001 to 1 µM

row,SMILES,EC50
1,COC(=O)C1CSC(c2csc(C(=O)c3c[nH]c4ccccc34)n2)=N1 (centres unmarked) [Compound 32-1],0.001 to 1 µM
2,COC(=O)c1csc(C(=O)c2cn(COC(=O)[C@@H](N)C(C)C)c3ccccc23)n1 [Compound 1-2],0.001 to 1 µM
3,COC(=O)c1csc(C(=O)c2cn(COC(=O)[C@@H](N)C(C)(C)C)c3ccccc23)n1 [Compound 2-2],0.001 to 1 µM
4,COC(=O)c1csc(C(=O)c2c[nH]c3ccc(OC)cc23)n1 [Compound 19-2],0.001 to 1 µM
5,CC(C)c1cnc(C(=O)c2c[nH]c3ccccc23)s1 [Compound 10],10 to 100 µM
6,COC(=O)c1coc(-c2csc(C(=O)c3c[nH]c4ccccc34)n2)n1 [Compound 30-2],0.001 to 1 µM
7,COC(=O)c1csc(Cc2c[nH]c3ccccc23)n1 [Compound 28],10 to 100 µM
8,N#Cc1csc(C(=O)c2c[nH]c3ccccc23)n1 [Compound 29],0.001 to 1 µM
9,COC(=O)c1ccc(C(=O)c2c[nH]c3ccccc23)n1C [Compound 12],0.001 to 1 µM
10,Nc1nc(-c2csc(C(=O)c3c[nH]c4ccccc34)n2)cs1 [Compound 44],0.001 to 1 µM
11,O=C(c1nc(-c2nccs2)cs1)c1c[nH]c2ccccc12 [Compound 31-2],0.001 to 1 µM
12,COCCOCCOCCOCC(=O)OCn1cc(C(=O)c2nc(C(=O)OC)cs2)c2ccccc21 [Compound 6],0.001 to 1 µM
13,O=C(c1nc(-c2ccco2)cs1)c1c[nH]c2ccccc12 [Compound 40],0.001 to 1 µM
14,COCCOCCOCCOC(=O)n1cc(C(=O)c2nc(C(=O)OC)cs2)c2ccccc21 [Compound 5],0.001 to 1 µM
15,O=C(c1nc(-c2nnn[nH]2)cs1)c1c[nH]c2ccccc12 [Compound 35],1 to 10 µM
16,COC(=O)COCn1cc(C(=O)c2nc(C(=O)OC)cs2)c2ccccc21 [Compound 3],0.001 to 1 µM
17,COC(=O)c1csc(C(=O)c2cn(C(=O)[C@@H](N)C(C)C)c3ccccc23)n1 [Compound 4-2],0.001 to 1 µM
18,COC(=O)[C@@H]1COC(c2csc(C(=O)c3c[nH]c4ccccc34)n2)=N1 [Compound 30-1],0.001 to 1 µM
19,O=C(c1nc(-c2cnccn2)cs1)c1c[nH]c2ccccc12 [Compound 39],0.001 to 1 µM
20,COC(=O)c1csc(/C(=N\O)c2c[nH]c3ccccc23)n1 [Compound 26-2],1 to 10 µM
21,O=C(c1nc(C2=NCCO2)cs1)c1c[nH]c2ccccc12 [Compound 33-1],0.001 to 1 µM
